Measured values taken from ChEMBL document CHEMBL4138084, “Structure-activity relationship study of the tumour-targeting peptide A20FMDV2 via modification of Lys16, Leu13, and N- and/or C-terminal functionality” (Eur J Med Chem, 2017).
Active and inactive are the calls of the source. No cut-off for these calls is given here.

Tests used:
[1] = molecular target: Integrin alpha-V/beta-8 (Homo sapiens) (UniProt P06756+P26012); assay: Binding affinity alphav/beta8 integrin in human A375PPuro cells at 1000 nM after 15 mins by flow cytometric analysis; assay type: cell-based
[2] = tested on: Integrin alpha-V/beta-1 (Homo sapiens); assay: Binding affinity alphav/beta1 integrin in human A375PPuro cells at 1000 nM after 15 mins by flow cytometric analysis
[3] = Drug uptake in human A375PPuro cells at 1000 nM after 15 mins by flow cytometric analysis; assay type: ADME, cell-based; conditions: 0.25 h, 1 µM
[4] = molecular target: Integrin alpha-V/beta-5 (Homo sapiens) (UniProt P06756+P18084); assay: Binding affinity alphav/beta5 integrin in human A375PPuro cells at 1000 nM after 15 mins by flow cytometric analysis; assay type: cell-based

SMILES: CC(C)C[C@H](NC(=O)[C@H](CC(=O)O)NC(=O)CNC(=O)[C@H](CCCNC(=N)N)NC(=O)[C@H](CC(C)C)NC(=O)[C@H](CC(N)=O)NC(=O)[C@@H]1CCCN1C(=O)[C@@H](NC(=O)[C@H](CCCCNC(=O)CCCC[C@@H]1SC[C@@H]2NC(=O)N[C@@H]21)NC(=O)[C@H](CC(N)=O)NC(=O)CN1CCN(CC(=O)O)CCN(CC(=O)O)CCN(CC(=O)O)CC1)C(C)C)C(=O)N[C@@H](CCC(N)=O)C(=O)N[C@H](C(=O)N[C@@H](CC(C)C)C(=O)N[C@@H](C)C(=O)N[C@@H](CCC(N)=O)C(=O)N[C@@H](CCCCN)C(=O)N[C@H](C(=O)N[C@@H](C)C(=O)N[C@@H](CCCNC(=N)N)C(=O)N[C@H](C(=O)O)[C@@H](C)O)C(C)C)C(C)C
- Activity [1]: inactive
- Activity [2]: inactive
- Drug uptake [3]: Not Active
- Activity [4]: inactive
